Data as given in patent US6875760B2 (Novo Nordisk A/S, priority 1999, dated 2005).

target: T1, human glucagon receptor (Homo sapiens, UniProt P47871); experiment: Glucagon Binding Assay (III); details: BHK cell membranes, WGA SPA beads, 125I-glucagon; read-out: Glu Bd Assay (III) IC50
T1 construct: expressed in transfected cells; host or cells: BHK (baby hamster kidney) cells
How it was run: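 Non-specific binding was set with 500 nM glucagon in this SPA-type binding assay using WGA beads. The receptor source was a membrane preparation, kept on ice or at 4 °C, from BHK cells transfected with the human receptor. Scintillation counts were taken after 4 hours of shaking and 8–48 hours of settling.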

T1 sequence (P47871 26-477): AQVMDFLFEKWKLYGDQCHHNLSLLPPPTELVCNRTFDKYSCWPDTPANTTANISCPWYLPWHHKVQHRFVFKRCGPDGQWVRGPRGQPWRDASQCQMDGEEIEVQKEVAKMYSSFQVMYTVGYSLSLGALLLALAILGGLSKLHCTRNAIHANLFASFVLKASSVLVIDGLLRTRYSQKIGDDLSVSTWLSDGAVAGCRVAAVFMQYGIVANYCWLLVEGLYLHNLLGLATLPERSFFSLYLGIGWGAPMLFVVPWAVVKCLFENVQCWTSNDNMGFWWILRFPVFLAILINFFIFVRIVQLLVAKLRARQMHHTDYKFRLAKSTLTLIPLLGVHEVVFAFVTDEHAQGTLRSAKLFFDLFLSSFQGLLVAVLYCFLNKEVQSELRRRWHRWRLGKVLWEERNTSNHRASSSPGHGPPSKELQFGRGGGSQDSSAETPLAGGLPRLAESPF

| IC50 [nM] | SMILES |
| --- | --- |
| 2810 | CC(C)(C)c1ccc(N(Cc2ccc(C(=O)Nc3nn[nH]n3)cc2)C(=O)Nc2cccc(C(=O)O)c2)cc1 [Example 456, 3-{3-(4-tert-Butylphenyl)-3-[4-(2H-tetrazol-5-ylcarbamoyl)benzyl]ureido}benzoic acid] |
| 203 | CCC1CCC(N(Cc2ccc(C(=O)NCCC(=O)O)cc2)C(=O)Nc2ccc(OC(F)(F)F)cc2)CC1 (centres unmarked) [Example 83, 3-{4-[1-(4-Ethylcyclohexyl)-3-(4-trifluoromethoxyphenyl)ureidomethyl]benzoylamino}propionic acid] |
| 4100 | CCOc1ccc(N(Cc2ccc(C(=O)NCCC(=O)O)cc2)C(=O)Nc2ccc(OC(F)(F)F)cc2)cc1 [Example 442, 3-{4-[1-(4-Ethoxyphenyl)-3-(4-trifluoromethoxyphenyl)ureidomethyl]benzoylamino}propionic acid] |
| 450 | CC(C)(C)C1CCC(N(Cc2ccc(C(=O)Nc3nn[nH]n3)cc2)C(=O)c2cccc3ccccc23)CC1 (centres unmarked) [Example 515, 4-{[(4-tert-Butylcyclohexyl)-(naphth-1-ylcarbonyl)amino]methyl}-N-(2H-tetrazol-5-yl)benzamide] |
| 88 | CC(C)(C)C1CCC(N(Cc2ccc(C(=O)Nc3nn[nH]n3)cc2)C(=O)Cc2ccc(-c3ccccc3)cc2)CC1 (centres unmarked) [Example 547, 4-{[(2-Biphenyl-4-ylacetyl)-(4-tert-butylcyclohexyl)amino]methyl}-N-(2H-tetrazol-5-yl)benzamide] |
| 1000 | CC(C)c1ccc(NC(=O)N(Cc2ccc(C(=O)NCCC(=O)O)cc2)CC(c2ccccc2)c2ccccc2)cc1 [Example 55, 3-{4-[1-(2,2-Diphenylethyl)-3-(4-isopropylphenyl)ureidomethyl]benzoylamino}propionic acid] |
| 479 | O=C(O)CCNC(=O)c1ccc(CN(C(=O)c2cc3ccccc3s2)C2CCC3(CCCCC3)CC2)cc1 [Example 619, 3-(4-{[(Benzo[b]thiophene-2-carbonyl)spiro[5.5]undec-3-yl-amino]methyl}benzoylamino)propionic acid] |
| 143 | O=C(O)CCNC(=O)c1ccc(CN(C(=O)Nc2ccc(OC(F)(F)F)cc2)[C@H]2CC[C@H](c3ccccc3)CC2)cc1 [Example 81, 3-{4-[1-(4-trans-Phenylcyclohexane)-3-(4-trifluoromethoxyphenyl)ureidomethyl]benzoylamino}propionic acid] |
| 17 | O=C(O)CCNC(=O)c1ccc(CN(C(=O)Nc2cc(Br)cc(C(F)(F)F)c2)[C@H]2CC[C@H](C3CCCCC3)CC2)cc1 [Example 393, 3-{4-[1-(trans-4-Cyclohexylcyclohexyl)-3-(3-bromo-5-trifluoromethylphenyl)ureidomethyl]benzoylamino}propionic acid] |
| 669 | CC(C)(C)C1CCC(N(Cc2ccc(C(=O)NCCC(=O)O)cc2)C(=O)c2ccc(Cc3ccccc3)cc2)CC1 (centres unmarked) [Example 525, 3-(4-{[(4-Benzylbenzoyl)-(4-tert-butylcyclohexyl)amino]methyl}benzoylamino)propionic acid] |
| 261 | CCCCOC(=O)c1ccc(NC(=O)N(Cc2ccc(C(=O)NCCC(=O)O)cc2)C2CCC(C(C)C)CC2)cc1 (centres unmarked) [Example 84, 4-[3-[4-(2-Carboxyethylcarbamoyl)benzyl]-3-(4-isopropylcyclohexyl)ureido]benzoic acid butyl ester] |
| 1810 | CNC(=O)c1cccc(NC(=O)N(Cc2ccc(C(=O)Nc3nn[nH]n3)cc2)c2ccc(C(C)(C)C)cc2)c1 [Example 458, N-Methyl-3-{3-(4-tert-butylphenyl)-3-[4-(2H-tetrazol-5-ylcarbamoyl)benzyl]ureido}benzamide] |
| 1690 | CC(C)(C)c1ccc(N(Cc2ccc(C(=O)Nc3nn[nH]n3)cc2)C(=O)Nc2ccc3c(c2)S(=O)(=O)CC3)cc1 [Example 259, 4-[1-(4-tert-Butylphenyl)-3-(1,1-dioxo-2,3-dihydro-1H-benzo[b]thiophen-6-yl)ureidomethyl]-N-(2H-tetrazol-5-yl)benzamide] |
| 42 | CS(=O)(=O)c1cccc(NC(=O)N(Cc2ccc(C(=O)Nc3nn[nH]n3)cc2)c2ccc(C3CCCCC3)cc2)c1 [Example 444, 4-[1-(4-Cyclohexylphenyl)-3-(3-methylsulfonylphenyl)ureidomethyl]-N-(2H-tetrazol-5-yl)benzamide] |
| 20 | CC(C)(C)c1ccc(N(Cc2ccc(C(=O)Nc3nn[nH]n3)cc2)C(=O)Nc2ccc(SC(F)(F)F)cc2)cc1 [Example 332, 4-[1-(4-tert-Butylphenyl)-3-(4-trifluoromethylsulfanylphenyl)ureidomethyl]-N-(2H-tetrazol-5-yl)benzamide] |

Continued, compound first:

| SMILES | IC50 [nM] |
| --- | --- |
| CS(=O)(=O)c1ccc(F)c(NC(=O)N(Cc2ccc(C(=O)Nc3nn[nH]n3)cc2)c2ccc(C3CCCCC3)cc2)c1 [Example 260, 4-[1-(4-Cyclohexylphenyl)-3-(2-fluoro-5-methylsulfonylphenyl)ureidomethyl]-N-(2H-tetrazol-5-yl)benzamide] | 149 |
| CC(C)(C)c1ccc(N(Cc2ccc(C(=O)Nc3nn[nH]n3)cc2)C(=O)c2cc3cc(OC(F)(F)F)ccc3[nH]2)cc1 [Example 559, 5-Trifluoromethoxy-1H-indole-2-carboxylic acid (4-tert-butylphenyl)-[4-(2H-tetrazol-5-ylcarbamoyl)benzyl]amide] | 1090 |
| CC(C)(C)C1CCC(N(Cc2ccc(C(=O)Nc3nn[nH]n3)cc2)C(=O)Nc2cccc(C#N)c2)CC1 (centres unmarked) [Example 274, 4-[1-(4-tert-Butylcyclohexyl)-3-(3-cyanophenyl)ureidomethyl]-N-(2H-tetrazol-5-yl)benzamide] | 94 |
| CC(C)(C)C1CCC(N(Cc2ccc(C(=O)NCCC(=O)O)cc2)C(=O)Nc2ccc(Cl)c(Cl)c2)CC1 (centres unmarked) [Example 16, 3-{4-[1-(4-tert-Butylcyclohexyl)-3-(3,4-dichlorophenyl)ureidomethyl]benzoylamino}propionic acid] | 39 |
| O=C(Nc1nn[nH]n1)c1ccc(CN(C(=O)Nc2ccc(Cl)c(C(F)(F)F)c2)c2ccc(OC(F)(F)F)cc2)cc1 [Example 284, 4-[3-(4-Chloro-3-trifluoromethylphenyl)-1-(4-trifluoromethoxyphenyl)ureidomethyl]-N-(2H-tetrazol-5-yl)benzamide] | 54 |
| CCCCN1C(=O)c2ccc(NC(=O)N(Cc3ccc(C(=O)Nc4nn[nH]n4)cc3)c3ccc(C4CCCCC4)cc3)cc2C1=O [Example 636, 4-[3-(N′-Butylphthalimid-4-yl)-1-(4-cyclohexylphenyl)ureidomethyl]-N-(2H-tetrazol-5-yl)benzamide] | 5 |
| CC(C)(C)C1CCC(N(Cc2ccc(C(=O)NCCC(=O)O)cc2)C(=O)Oc2cc(C(F)(F)F)cc(C(F)(F)F)c2)CC1 (centres unmarked) [Example 403, 3-(4-{[(3,5-Bis(trifluoromethyl)phenoxycarbonyl)-(4-tert-butylcyclohexyl)amino]methyl}benzoylamino)propionic acid] | 338 |
| O=C(Nc1nn[nH]n1)c1ccc(CN(C(=O)Nc2cccc(SC(F)(F)F)c2)c2ccc(C3CCCCC3)cc2)cc1 [Example 278, 4-[1-(4-Cyclohexylphenyl)-3-(3-trifluoromethylsulfanylphenyl)ureidomethyl]-N-(2H-tetrazol-5-yl)benzamide] | 88 |
| CC(C)(C)C1CCC(N(Cc2ccc(C(=O)Nc3nn[nH]n3)cc2)C(=O)c2cc3cc(Cl)ccc3o2)CC1 (centres unmarked) [Example 490, 5-Chlorobenzofuran-2-carboxylic acid (4-tert-butylcyclohexyl)-[4-(2H-tetrazol-5-ylcarbamoyl)benzyl]amide] | 136 |
| CC(C)(C)C1CCC(N(Cc2ccc(C(=O)Nc3nn[nH]n3)cc2)C(=O)Nc2ccc(OC(F)(F)F)c(S(C)(=O)=O)c2)CC1 (centres unmarked) [Example 313, 4-[1-(4-tert-Butylcyclohexyl)-3-(3-methylsulfonyl-4-trifluoromethoxyphenyl)ureidomethyl]-N-(2H-tetrazol-5-yl)benzamide] | 18 |
| CC(C)(C)[C@H]1CC[C@H](N(Cc2ccc(C(=O)Nc3nn[nH]n3)cc2)NC(=O)c2ccc(OC(F)(F)F)cc2)CC1 [Example 380, 4-[N-(trans-4-tert-Butylcyclohexyl)-N′-(4-trifluoromethoxybenzoyl)hydrazinomethyl]-N-(2H-tetrazol-5-yl)benzamide] | 71 |
| CC(C)c1ccc(NC(=O)N(Cc2ccc(C(=O)NCCC(=O)O)cc2)C2CCC(C(C)(C)C)CC2)cc1 (centres unmarked) [Example 56, 3-{4-[1-(4-tert-Butylcyclohexyl)-3-(4-isopropylphenyl)ureidomethyl]benzoylamino}propionic acid] | 59 |
| CC(C)(C)c1ccc(N(Cc2ccc(C(=O)Nc3nn[nH]n3)cc2)C(=O)Oc2cc(C(F)(F)F)cc(C(F)(F)F)c2)cc1 [Example 406] | 751 |
| O=C(Nc1nn[nH]n1)c1ccc(CN(C(=O)Nc2ccc3c(c2)C(F)(F)OC(F)(F)O3)c2ccc(C3=CCCCC3)cc2)cc1 [Example 358, 4-[1-(4-Cyclohex-1-enylphenyl)-3-(2,2,4,4-tetrafluoro-4H-benzo[1,3]dioxin-6-yl)ureidomethyl]-N-(2H-tetrazol-5-yl)benzamide] | 19 |
| CC(C)(C)C1CCC(N(Cc2ccc(C(=O)Nc3nn[nH]n3)cc2)C(=O)C2=CCc3ccccc32)CC1 (centres unmarked) [Example 546, 4-([(4-tert-Butylcyclohexyl)-(3H-indene-1-carbonyl)amino]methyl}-N-(2H-tetrazol-5-yl)benzamide] | 1740 |
| O=C(Nc1nn[nH]n1)c1ccc(CN(C(=O)NCc2ccc(OC(F)(F)F)cc2)c2ccc(C3CCCCC3)cc2)cc1 [Example 347, 4-[1-(4-Cyclohexylphenyl)-3-(4-trifluoromethoxybenzyl)ureidomethyl]-N-(2H-tetrazol-5-yl)benzamide] | 79 |

same assay, conditions: value printed in the text of Example 315; read-out: Glu bd assay III

| IC50 [nM] | SMILES |
| --- | --- |
| 22 | CS(=O)(=O)c1cc(NC(=O)N(Cc2ccc(C(=O)Nc3nn[nH]n3)cc2)c2ccc(C3=CCCCC3)cc2)ccc1OC(F)(F)F [Example 315, 4-[1-(4-Cyclohex-1-enylphenyl)-3-(3-methylsulfonyl-4-trifluoromethoxyphenyl)ureidomethyl]-N-(2H-tetrazol-5-yl)benzamide] |
